Test results reported in PubChem BioAssay (NCI).
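Step 1: Grow cells in 96-well plates. Step 2: Expose to compound for 48 hours at 5 concentrations. Step 3: Interpolate endpoints linearly; if unreached, use highest concentration. Abbreviation: GI50, concentration required for 50% inhibition of growth. Definition used: TGI = concentration required for complete inhibition of growth.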

Key:
Assay in all cases: NCI-60 cell line screen, 48 h
786-0 renal = test system: 786-0 renal
A498 renal = test system: A498 renal
A549 NSCLC = test system: A549 NSCLC
ACHN renal = test system: ACHN renal
BT-549 breast = test system: BT-549 breast
CAKI-1 renal = test system: CAKI-1 renal
CCRF-CEM leukemia = test system: CCRF-CEM leukemia
COLO 205 colon = test system: COLO 205 colon
DU-145 prostate = test system: DU-145 prostate
EKVX NSCLC = test system: EKVX NSCLC
HCC-2998 colon = test system: HCC-2998 colon
HCT-116 colon = test system: HCT-116 colon
HCT-15 colon = test system: HCT-15 colon
HL-60(TB) leukemia = test system: HL-60(TB) leukemia
HOP-62 NSCLC = test system: HOP-62 NSCLC
HOP-92 NSCLC = test system: HOP-92 NSCLC
HS 578T breast = test system: HS 578T breast
HT29 colon = test system: HT29 colon
IGROV1 ovarian = test system: IGROV1 ovarian
K-562 leukemia = test system: K-562 leukemia
KM12 colon = test system: KM12 colon
LOX IMVI melanoma = test system: LOX IMVI melanoma
M14 melanoma = test system: M14 melanoma
MALME-3M melanoma = test system: MALME-3M melanoma
MDA-MB-231 breast = test system: MDA-MB-231 breast
MDA-MB-435 = test system: MDA-MB-435
MOLT-4 leukemia = test system: MOLT-4 leukemia
NCI-H226 lung = test system: NCI-H226 lung
NCI-H23 lung = test system: NCI-H23 lung
NCI/ADR-RES ovarian = test system: NCI/ADR-RES ovarian
OVCAR-3 ovarian = test system: OVCAR-3 ovarian
OVCAR-4 ovarian = test system: OVCAR-4 ovarian
OVCAR-5 ovarian = test system: OVCAR-5 ovarian
OVCAR-8 ovarian = test system: OVCAR-8 ovarian
PC-3 prostate = test system: PC-3 prostate
RPMI-8226 leukemia = test system: RPMI-8226 leukemia
RXF 393 renal = test system: RXF 393 renal
SF-268 CNS = test system: SF-268 CNS
SF-295 CNS = test system: SF-295 CNS
SF-539 CNS = test system: SF-539 CNS
SK-MEL-2 melanoma = test system: SK-MEL-2 melanoma
SK-MEL-28 melanoma = test system: SK-MEL-28 melanoma
SK-MEL-5 melanoma = test system: SK-MEL-5 melanoma
SK-OV-3 ovarian = test system: SK-OV-3 ovarian
SN12C renal = test system: SN12C renal
SNB-19 CNS = test system: SNB-19 CNS
SNB-75 CNS = test system: SNB-75 CNS
SW-620 colon = test system: SW-620 colon
T-47D breast = test system: T-47D breast
TK-10 renal = test system: TK-10 renal
U251 CNS = test system: U251 CNS
UACC-257 melanoma = test system: UACC-257 melanoma
UACC-62 melanoma = test system: UACC-62 melanoma
UO-31 renal = test system: UO-31 renal

SMILES: COc1ccc(/C=N/NC2=NC3C(S2)N(C)C(=O)N3C)cc1 (configuration not stated)
- GI50 (786-0 renal): 4.89 µM
- TGI (786-0 renal): > 100 µM
- GI50 (A498 renal): 5.73 µM
- TGI (A498 renal): 87 µM
- GI50 (A549 NSCLC): 5.83 µM
- TGI (A549 NSCLC): > 100 µM
- GI50 (ACHN renal): 5.27 µM
- TGI (ACHN renal): > 100 µM
- GI50 (BT-549 breast): 2.71 µM
- TGI (BT-549 breast): 14.2 µM
- GI50 (CAKI-1 renal): 3.76 µM
- TGI (CAKI-1 renal): > 100 µM
- GI50 (CCRF-CEM leukemia): 3.61 µM
- TGI (CCRF-CEM leukemia): > 100 µM
- GI50 (COLO 205 colon): 4.25 µM
- TGI (COLO 205 colon): 25 µM
- GI50 (DU-145 prostate): 9.89 µM
- TGI (DU-145 prostate): > 100 µM
- GI50 (EKVX NSCLC): 8.03 µM
- TGI (EKVX NSCLC): > 100 µM
- GI50 (HCC-2998 colon): 6.91 µM
- TGI (HCC-2998 colon): 36 µM
- GI50 (HCT-116 colon): 4.67 µM
- TGI (HCT-116 colon): > 100 µM
- GI50 (HCT-15 colon): 3.48 µM
- TGI (HCT-15 colon): > 100 µM
- GI50 (HL-60(TB) leukemia): 2.51 µM
- TGI (HL-60(TB) leukemia): 5.55 µM
- GI50 (HOP-62 NSCLC): 4.12 µM
- TGI (HOP-62 NSCLC): > 100 µM
- GI50 (HOP-92 NSCLC): 9.44 µM
- TGI (HOP-92 NSCLC): > 100 µM
- GI50 (HS 578T breast): 2.51 µM
- TGI (HS 578T breast): 7.53 µM
- GI50 (HT29 colon): 2.15 µM
- TGI (HT29 colon): 5.1 µM
- GI50 (IGROV1 ovarian): 4.72 µM
- TGI (IGROV1 ovarian): > 100 µM
- GI50 (K-562 leukemia): 3.12 µM
- TGI (K-562 leukemia): > 100 µM
- GI50 (KM12 colon): 4.73 µM
- TGI (KM12 colon): > 100 µM
- GI50 (LOX IMVI melanoma): 3.79 µM
- TGI (LOX IMVI melanoma): > 100 µM
- GI50 (M14 melanoma): 4 µM
- TGI (M14 melanoma): 64.1 µM
- GI50 (MALME-3M melanoma): 3.7 µM
- TGI (MALME-3M melanoma): > 100 µM
- GI50 (MDA-MB-231 breast): 6.09 µM
- TGI (MDA-MB-231 breast): 45.2 µM
- GI50 (MDA-MB-435): 1.6 µM
- TGI (MDA-MB-435): 3.92 µM
- GI50 (MOLT-4 leukemia): 3.58 µM
- TGI (MOLT-4 leukemia): > 100 µM
- GI50 (NCI-H226 lung): 4.58 µM
- TGI (NCI-H226 lung): > 100 µM
- GI50 (NCI-H23 lung): 5.05 µM
- TGI (NCI-H23 lung): > 100 µM
- GI50 (NCI/ADR-RES ovarian): 3.8 µM
- TGI (NCI/ADR-RES ovarian): 27.4 µM
- GI50 (OVCAR-3 ovarian): 2.82 µM
- TGI (OVCAR-3 ovarian): 7.95 µM
- GI50 (OVCAR-4 ovarian): 7.95 µM
- TGI (OVCAR-4 ovarian): > 100 µM
- GI50 (OVCAR-5 ovarian): 7.96 µM
- TGI (OVCAR-5 ovarian): > 100 µM
- GI50 (OVCAR-8 ovarian): 7.65 µM
- TGI (OVCAR-8 ovarian): > 100 µM
- GI50 (PC-3 prostate): 4.76 µM
- TGI (PC-3 prostate): > 100 µM
- GI50 (RPMI-8226 leukemia): 5 µM
- TGI (RPMI-8226 leukemia): > 100 µM
- GI50 (RXF 393 renal): 1.99 µM
- TGI (RXF 393 renal): 5.05 µM
- GI50 (SF-268 CNS): 5.37 µM
- TGI (SF-268 CNS): > 100 µM
- GI50 (SF-295 CNS): 2.97 µM
- TGI (SF-295 CNS): 12.7 µM
- GI50 (SF-539 CNS): 3.03 µM
- TGI (SF-539 CNS): 12.3 µM
- GI50 (SK-MEL-2 melanoma): 1.04 µM
- TGI (SK-MEL-2 melanoma): 3.52 µM
- GI50 (SK-MEL-28 melanoma): 7.7 µM
- TGI (SK-MEL-28 melanoma): > 100 µM
- GI50 (SK-MEL-5 melanoma): 2.95 µM
- TGI (SK-MEL-5 melanoma): 10.6 µM
- GI50 (SK-OV-3 ovarian): 4.27 µM
- TGI (SK-OV-3 ovarian): > 100 µM
- GI50 (SN12C renal): 4.17 µM
- TGI (SN12C renal): > 100 µM
- GI50 (SNB-19 CNS): 4.12 µM
- TGI (SNB-19 CNS): > 100 µM
- GI50 (SNB-75 CNS): 1.75 µM
- TGI (SNB-75 CNS): 6.26 µM
- GI50 (SW-620 colon): 3.32 µM
- TGI (SW-620 colon): > 100 µM
- GI50 (T-47D breast): 4.5 µM
- TGI (T-47D breast): > 100 µM
- TGI (TK-10 renal): 40.9 µM
- GI50 (U251 CNS): 3.78 µM
- TGI (U251 CNS): > 100 µM
- GI50 (UACC-257 melanoma): 5.01 µM
- TGI (UACC-257 melanoma): > 100 µM
- GI50 (UACC-62 melanoma): 2.97 µM
- TGI (UACC-62 melanoma): 37.1 µM
- GI50 (UO-31 renal): 3.16 µM
- TGI (UO-31 renal): > 100 µM
